What was measured:
Format in all cases: biochemical
[1] = biological target: recombinant PI3K (p110δ/p85α) (Homo sapiens, UniProt O00329); assay: PI3Kδ ADP-Glo kinase assay; conditions: read-out: PI3Kδ Enzyme activity IC50
Procedure: Compounds disclosed herein were tested for inhibition of PI3Kδ kinase activity using commercial ADP-Glo™ Kinase Assay (Promega Corporation) and following the manufacture's instruction. Briefly, recombinant PI3K (p110δ/p85α) enzyme, lipid kinase substrate and a serial dilution of compounds disclosed herein were incubated for 0.5 hr at room temperature. ATP was added to initiate the kinase reaction. After incubation for 1 hr at room temperature, ADP-Glo™ reagent was added to terminate the kinase reaction and deplete the remaining ATP. After incubation for 1 hr at room temperature, kinase detection reagent was added to simultaneously convert ADP to ATP and allow the newly synthesized ATP to be measured using a luciferase/luciferin reaction. After incubation for 0.5 hr at room temperature, the luminescence generated was measured on a PHERAstar FS plate reader (BMG LABTECH), The residual enzyme activity in presence of increasing concentrations of compounds was calculated based on the luminescence. The IC50 for each compound was derived from fitting the data to the four-parameter logistic equation by Graphpad Prism software.

[2] = biological target: recombinant PI3K (p110α/p85α) (Homo sapiens, UniProt P42336); assay: PI3Kα ADP-Glo kinase assay; conditions: for IC50: read-out: PI3Kα Enzyme activity IC50; for inhibition at 0.5 µM: read-out: PI3Kα max inhibition (%) at 0.5 μM
Sequence of recombinant PI3K (p110α/p85α) (P42336 whole entry): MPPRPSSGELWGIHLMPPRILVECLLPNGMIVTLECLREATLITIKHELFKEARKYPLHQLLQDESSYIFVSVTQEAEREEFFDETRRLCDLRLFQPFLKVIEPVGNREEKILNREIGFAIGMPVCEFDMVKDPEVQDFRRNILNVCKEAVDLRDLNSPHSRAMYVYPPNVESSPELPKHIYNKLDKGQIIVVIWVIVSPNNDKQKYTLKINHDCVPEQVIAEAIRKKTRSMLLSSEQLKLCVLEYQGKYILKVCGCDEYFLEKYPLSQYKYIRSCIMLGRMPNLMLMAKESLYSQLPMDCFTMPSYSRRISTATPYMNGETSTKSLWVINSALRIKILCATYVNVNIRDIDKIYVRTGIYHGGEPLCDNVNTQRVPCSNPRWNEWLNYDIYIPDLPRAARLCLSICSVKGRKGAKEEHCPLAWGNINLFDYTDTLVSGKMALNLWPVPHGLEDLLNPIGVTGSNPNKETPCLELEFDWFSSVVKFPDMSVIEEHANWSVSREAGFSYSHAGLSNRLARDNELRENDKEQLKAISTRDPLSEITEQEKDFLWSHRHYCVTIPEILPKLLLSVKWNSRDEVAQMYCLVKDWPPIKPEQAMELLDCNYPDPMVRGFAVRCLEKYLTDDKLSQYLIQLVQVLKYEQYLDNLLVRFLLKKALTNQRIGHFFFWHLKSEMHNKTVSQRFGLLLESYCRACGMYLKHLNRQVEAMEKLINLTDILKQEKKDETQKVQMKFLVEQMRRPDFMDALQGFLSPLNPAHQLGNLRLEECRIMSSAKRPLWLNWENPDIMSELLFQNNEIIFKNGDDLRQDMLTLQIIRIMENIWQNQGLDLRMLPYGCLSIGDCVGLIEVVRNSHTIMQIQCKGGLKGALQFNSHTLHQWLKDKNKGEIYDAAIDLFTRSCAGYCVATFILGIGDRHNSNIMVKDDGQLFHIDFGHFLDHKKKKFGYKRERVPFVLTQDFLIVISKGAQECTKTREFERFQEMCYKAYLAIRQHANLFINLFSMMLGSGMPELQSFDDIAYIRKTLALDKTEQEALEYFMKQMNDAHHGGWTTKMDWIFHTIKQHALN
Sequence of recombinant PI3K (p110α/p85α) (P27986 whole entry partner): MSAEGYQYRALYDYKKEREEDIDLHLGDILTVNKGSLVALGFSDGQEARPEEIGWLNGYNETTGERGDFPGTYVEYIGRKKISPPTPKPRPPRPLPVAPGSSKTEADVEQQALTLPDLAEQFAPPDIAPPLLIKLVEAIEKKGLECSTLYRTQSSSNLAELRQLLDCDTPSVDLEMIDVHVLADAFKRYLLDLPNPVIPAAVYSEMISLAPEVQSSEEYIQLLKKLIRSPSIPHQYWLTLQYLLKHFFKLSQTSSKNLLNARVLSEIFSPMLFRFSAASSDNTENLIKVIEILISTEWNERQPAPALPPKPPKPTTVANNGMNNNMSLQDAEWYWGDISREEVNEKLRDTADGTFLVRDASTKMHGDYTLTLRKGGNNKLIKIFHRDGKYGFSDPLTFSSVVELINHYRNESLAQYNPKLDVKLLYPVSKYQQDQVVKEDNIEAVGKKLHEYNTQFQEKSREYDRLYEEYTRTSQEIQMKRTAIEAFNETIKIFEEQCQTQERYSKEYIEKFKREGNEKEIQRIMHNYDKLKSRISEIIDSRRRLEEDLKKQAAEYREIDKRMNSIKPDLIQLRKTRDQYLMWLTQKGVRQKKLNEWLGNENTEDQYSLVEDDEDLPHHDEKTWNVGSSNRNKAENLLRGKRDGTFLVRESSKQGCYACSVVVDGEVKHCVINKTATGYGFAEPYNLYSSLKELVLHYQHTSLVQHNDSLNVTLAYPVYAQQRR

PI3K (p110γ) = PI3K (p110γ) (Homo sapiens, UniProt P48736); assay: PI3Kγ ADP-Glo kinase assay; conditions: for inhibition at 0.5 µM: read-out: PI3Kγ max inhibition (%) at 0.5 μM
Sequence of PI3K (p110γ) (P48736 whole entry): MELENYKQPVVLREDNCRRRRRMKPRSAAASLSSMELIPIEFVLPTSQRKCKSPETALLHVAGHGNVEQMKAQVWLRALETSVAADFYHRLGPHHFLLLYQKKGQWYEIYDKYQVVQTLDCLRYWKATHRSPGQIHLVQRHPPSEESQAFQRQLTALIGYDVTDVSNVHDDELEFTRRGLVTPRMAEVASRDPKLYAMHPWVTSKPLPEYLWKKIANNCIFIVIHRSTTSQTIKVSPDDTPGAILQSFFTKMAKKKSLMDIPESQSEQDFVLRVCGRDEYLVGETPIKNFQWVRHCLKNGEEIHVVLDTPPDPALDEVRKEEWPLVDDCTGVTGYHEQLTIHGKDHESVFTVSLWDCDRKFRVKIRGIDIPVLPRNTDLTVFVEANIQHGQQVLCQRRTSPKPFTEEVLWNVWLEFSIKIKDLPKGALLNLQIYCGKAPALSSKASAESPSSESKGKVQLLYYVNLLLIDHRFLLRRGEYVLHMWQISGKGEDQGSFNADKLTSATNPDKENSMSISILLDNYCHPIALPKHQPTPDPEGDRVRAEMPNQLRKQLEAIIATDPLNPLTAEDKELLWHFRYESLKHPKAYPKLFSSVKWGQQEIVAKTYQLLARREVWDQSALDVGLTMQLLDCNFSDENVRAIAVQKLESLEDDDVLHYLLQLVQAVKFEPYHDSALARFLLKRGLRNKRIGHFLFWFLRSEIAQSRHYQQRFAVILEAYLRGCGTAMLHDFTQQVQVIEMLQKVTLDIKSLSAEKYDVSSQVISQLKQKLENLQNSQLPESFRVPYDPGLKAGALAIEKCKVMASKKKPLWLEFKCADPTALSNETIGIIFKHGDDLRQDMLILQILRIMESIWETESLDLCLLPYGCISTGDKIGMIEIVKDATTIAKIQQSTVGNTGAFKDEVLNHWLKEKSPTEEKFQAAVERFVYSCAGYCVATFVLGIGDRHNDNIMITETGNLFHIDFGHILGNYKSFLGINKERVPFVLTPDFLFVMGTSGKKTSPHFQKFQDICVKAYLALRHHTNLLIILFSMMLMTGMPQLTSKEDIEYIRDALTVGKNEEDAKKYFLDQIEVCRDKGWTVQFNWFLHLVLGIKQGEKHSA

Sequence of recombinant PI3K (p110δ/p85α) (O00329 whole entry): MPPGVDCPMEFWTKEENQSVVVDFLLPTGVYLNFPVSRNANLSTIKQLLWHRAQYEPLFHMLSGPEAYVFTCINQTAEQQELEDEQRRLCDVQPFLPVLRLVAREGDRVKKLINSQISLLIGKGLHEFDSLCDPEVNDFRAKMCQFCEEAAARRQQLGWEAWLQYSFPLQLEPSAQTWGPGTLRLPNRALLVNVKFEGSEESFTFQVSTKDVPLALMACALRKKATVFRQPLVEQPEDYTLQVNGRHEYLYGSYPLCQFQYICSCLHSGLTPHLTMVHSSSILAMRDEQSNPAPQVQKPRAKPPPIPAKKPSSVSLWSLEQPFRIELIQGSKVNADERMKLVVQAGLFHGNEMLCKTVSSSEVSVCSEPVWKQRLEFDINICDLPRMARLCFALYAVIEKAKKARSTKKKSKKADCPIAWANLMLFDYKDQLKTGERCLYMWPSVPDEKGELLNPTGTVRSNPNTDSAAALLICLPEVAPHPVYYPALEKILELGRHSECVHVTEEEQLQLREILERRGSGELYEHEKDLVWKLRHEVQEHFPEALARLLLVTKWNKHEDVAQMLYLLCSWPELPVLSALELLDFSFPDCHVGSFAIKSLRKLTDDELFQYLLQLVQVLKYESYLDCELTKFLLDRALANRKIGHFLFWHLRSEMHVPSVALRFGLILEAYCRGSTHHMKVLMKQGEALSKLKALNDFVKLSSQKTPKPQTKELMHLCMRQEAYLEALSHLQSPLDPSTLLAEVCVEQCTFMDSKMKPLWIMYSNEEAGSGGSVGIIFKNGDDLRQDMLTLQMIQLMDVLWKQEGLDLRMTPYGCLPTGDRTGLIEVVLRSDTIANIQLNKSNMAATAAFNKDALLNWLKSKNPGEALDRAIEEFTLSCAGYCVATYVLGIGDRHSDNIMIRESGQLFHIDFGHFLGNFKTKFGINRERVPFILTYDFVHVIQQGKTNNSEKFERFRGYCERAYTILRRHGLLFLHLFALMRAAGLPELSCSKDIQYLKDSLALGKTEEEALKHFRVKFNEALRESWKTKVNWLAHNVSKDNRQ
Sequence of recombinant PI3K (p110δ/p85α) (P27986 whole entry partner): as the sequence (P27986 whole entry partner) above

Q: For `CC(C)Oc1c(C(C)c2nc(Cl)c3c(N)nccn23)cc(Cl)c(F)c1-c1ccc(C(=O)O)nc1` (single isomer, unassigned) [Compound 18B], which IC50 [1] is on record?
A: 26 nM

Q: For `CC(C)Oc1c(C(C)c2nc(Cl)c3c(N)nccn23)cc(Cl)c(F)c1C1CNC(=O)C1` (single isomer, unassigned) [Compound 48C, 4-(3-(1-(8-amino-1-chloroimidazo[1,5-a]pyrazin-3-yl)ethyl)-5-chloro-6-fluoro-2-isopropoxyphenyl)pyrrolidin-2-one], which IC50 [1] is on record?
A: 160 nM

Q: How did the IC50 [1] turn out when `CC(C)Oc1c(C(C)c2nc(Cl)c3c(N)nccn23)cc(Cl)c(F)c1C1CNC(=O)C1` (single isomer, unassigned) [Compound 48D, 4-(3-(1-(8-amino-1-chloroimidazo[1,5-a]pyrazin-3-yl)ethyl)-5-chloro-6-fluoro-2-isopropoxyphenyl)pyrrolidin-2-one] was run?
A: 6.8 nM

Q: Which IC50 [1] does the source give for `CCOc1c(C(C)c2nc(Cl)c3c(N)nccn23)cc(Cl)c(F)c1C1CCOCC1` (single isomer, unassigned) [Compound 49B, 1-chloro-3-(1-(5-chloro-2-ethoxy-4-fluoro-3-(tetrahydro-2H-pyran-4-yl)phenyl)ethyl)imidazo[1,5-a]pyrazin-8-amine] here?
A: 26 nM

Q: Which IC50 [1] does the source give for `CCOc1c(C(C)c2nc(Cl)c3c(N)nccn23)cc(Cl)c(C)c1N1CCOCC1` (single isomer, unassigned) [Compound 51B, 1-chloro-3-(1-(5-chloro-2-ethoxy-4-methyl-3-morpholinophenyl)ethyl)imidazo[1,5-a]pyrazin-8-amine] here?
A: 320 nM

Q: For `Cc1nc(C(C)c2cc(Cl)c(F)c(-c3ccc(C#N)nc3)c2OC(C)C)n2ccnc(N)c12` (single isomer, unassigned) [Compound 59B, 5-(3-(1-(8-amino-1-methylimidazo[1,5-a]pyrazin-3-yl)ethyl)-5-chloro-6-fluoro-2-isopropoxyphenyl)picolinonitrile], which IC50 [1] is on record?
A: 240 nM

Q: With `COc1c(C(C)c2nc(Br)c3c(N)nccn23)cc(Cl)c(C)c1-c1cccnc1` (stereo not shown) [Compound 2, 1-bromo-3-(1-(5-chloro-2-methoxy-4-methyl-3-(pyridin-3-yl)phenyl)ethyl)imidazo[1,5-a]pyrazin-8-amine] as the molecule, how does the IC50 [1] read?
A: 1.5 nM

Q: And the IC50 [2]?
A: 560 nM

Q: And the inhibition at 0.5 µM (PI3K (p110γ))?
A: 37%

Q: For `COc1c(C(C)c2nc(-c3ccccc3)c3c(N)nccn23)cc(Cl)c(C)c1-c1cccnc1` (stereo not shown) [Compound 3, 3-(1-(5-chloro-2-methoxy-4-methyl-3-(pyridin-3-yl)phenyl)ethyl)-1-phenylimidazo[1,5-a]pyrazin-8-amine], which IC50 [1] is on record?
A: 150 nM

Q: Which results are given for `COc1c(C(C)c2nc(-c3cccc(O)c3)c3c(N)nccn23)cc(Cl)c(C)c1-c1cccnc1` (stereo not shown) [Compound 4, 3-(8-amino-3-(1-(5-chloro-2-methoxy-4-methyl-3-(pyridin-3-yl)phenyl)ethyl)imidazo[1,5-a]pyrazin-1-yl)phenol]?
A: IC50 [1]: 7.5 nM; inhibition at 0.5 µM [2]: 20%; inhibition at 0.5 µM (PI3K (p110γ)): 9%

Q: Which IC50 [1] does the source give for `COc1c(C(C)c2nc(Br)c3c(N)ncc(Cl)n23)cc(Cl)c(C)c1-c1cccnc1` (stereo not shown) [Compound 5, 1-bromo-5-chloro-3-(1-(5-chloro-2-methoxy-4-methyl-3-(pyridin-3-yl)phenyl)ethyl) imidazo[1,5-a]pyrazin-8-amine] here?
A: 18 nM

Q: And the inhibition at 0.5 µM [2]?
A: 19%

Q: And the inhibition at 0.5 µM (PI3K (p110γ))?
A: 44%

Q: For `COc1c(C(C)c2nc(Cl)c3c(N)nccn23)cc(Cl)c(C)c1-c1cccnc1` (stereo not shown) [Compound 6, 1-chloro-3-(1-(5-chloro-2-methoxy-4-methyl-3-(pyridin-3-yl)phenyl)ethyl)imidazo[1,5-a]pyrazin-8-amine], which IC50 [1] is on record?
A: 2 nM

Q: And the inhibition at 0.5 µM [2]?
A: 34%

Q: And the inhibition at 0.5 µM (PI3K (p110γ))?
A: 52%

Q: Which IC50 [1] does the source give for `CCOc1c(C(C)c2nc(Br)c3c(N)nccn23)cc(Cl)c(C)c1-c1ccc(C)nc1` (stereo not shown) [Compound 7, 1-bromo-3-(1-(5-chloro-2-ethoxy-4-methyl-3-(6-methylpyridin-3-yl)phenyl)ethyl) imidazo[1,5-a]pyrazin-8-amine] here?
A: 1.9 nM

Q: And the IC50 [2]?
A: 420 nM

Q: And the IC50 (PI3K (p110γ); read-out: PI3Kγ Enzyme activity IC50)?
A: 200 nM

Q: For `CCOc1c([C@@H](C)c2nc(Cl)c3c(N)nccn23)cc(Cl)c(C)c1-c1ccc(C)nc1` [Compound 8B], which IC50 [1] is on record?
A: 170 nM

Q: With `CCOc1c(C(C)c2nc(Br)c3c(N)nccn23)cc(Cl)c(C)c1-c1ccc(Cl)cc1` (stereo not shown) [Compound 9, 1-bromo-3-(1-(4′,5-dichloro-2-ethoxy-6-methyl-[1,1′-biphenyl]-3-yl)ethyl)imidazo[1,5-a]pyrazin-8-amine] as the molecule, how does the IC50 [1] read?
A: 100 nM

Q: For `CC(C)Oc1c([C@@H](C)c2nc(Cl)c3c(N)nccn23)cc(Cl)c(F)c1-c1ccc(C(=O)N(C)C)nc1` [Compound 16B], which IC50 [1] is on record?
A: 62 nM

Q: How did the IC50 [1] turn out when `CC(C)Oc1c([C@@H](C)c2nc(Cl)c3c(N)nccn23)cc(Cl)c(F)c1-c1ccc(C(N)=O)nc1` [Compound 17A] was run?
A: 91 nM

Q: `CCOc1c([C@@H](C)c2nc(Cl)c3c(N)nccn23)cc(Cl)c(C)c1-c1ccc(Cl)nc1` [Compound 27B] was tested. Which IC50 [1] did it give?
A: 500 nM

Q: How did the IC50 [1] turn out when `CCOc1c(C(C)c2nc(C)c3c(N)nccn23)cc(F)c(Cl)c1-c1ccc(C(F)(F)F)nc1` (stereo not shown) [Compound 34, 3-(1-(4-chloro-2-ethoxy-5-fluoro-3-(6-(trifluoromethyl)pyridin-3-yl)phenyl)ethyl)-1-methylimidazo[1,5-a]pyrazin-8-amine] was run?
A: 43 nM

Q: How did the IC50 [1] turn out when `Cc1c(Cl)cc([C@@H](C)c2nc(Br)c3c(N)nccn23)c(OC(C)C)c1-c1ccc(C(F)(F)F)nc1` [Compound 38B] was run?
A: 2100 nM

Q: `CC(C)Oc1c([C@@H](C)c2nc(Cl)c3c(N)nccn23)cc(Cl)c(F)c1-c1ccc(C(F)(F)F)nc1` [Compound 40B] was tested. Which IC50 [1] did it give?
A: 150 nM

Q: `CCOc1c([C@@H](C)c2nc(Cl)c3c(N)nccn23)cc(Cl)c(F)c1-c1ccc(C(F)(F)F)nc1` [Compound 41B] was tested. Which IC50 [1] did it give?
A: 350 nM

Q: With `CCCOc1c([C@@H](C)c2nc(Cl)c3c(N)nccn23)cc(Cl)c(F)c1-c1ccc(C(F)(F)F)nc1` [Compound 42B] as the molecule, how does the IC50 [1] read?
A: 330 nM

Q: `CCOc1c([C@@H](C)c2nc(Cl)c3c(N)nccn23)cc(Cl)c(F)c1-c1ccc(C(F)(F)F)nc1OC` [Compound 43B] was tested. Which IC50 [1] did it give?
A: > 1000 nM

Q: With `CCOc1c(C(C)c2nc(-c3ccc(OC)cc3)c3c(N)nccn23)cc(Cl)c(C)c1-c1ccc(OC)cc1` (stereo not shown) [Compound 44, 3-(1-(5-chloro-2-ethoxy-4′-methoxy-6-methyl-[151′-biphenyl]-3-yl)ethyl)-1-(4-methoxyphenyl)imidazo[1,5-a]pyrazin-8-amine] as the molecule, how does the IC50 [1] read?
A: 380 nM

Q: How did the IC50 [1] turn out when `CCOc1c(C(C)c2nc(Cl)c3c(N)nccn23)cc(Cl)c(F)c1C1CCOCC1` (stereo not shown) [Compound 49, 1-chloro-3-(1-(5-chloro-2-ethoxy-4-fluoro-3-(tetrahydro-2H-pyran-4-yl)phenyl)ethyl)imidazo[1,5-a]pyrazin-8-anine] was run?
A: 3.1 nM

Q: With `COc1c(C(C)c2nc(C3CC3)c3c(N)nccn23)cc(Cl)c(C)c1-c1cccnc1` (stereo not shown) [Compound 53, 3-(1(5-chloro-2-methoxy-4-methyl-3-(pyridin-3-yl)phenyl)ethyl)-1-cyclopropyl imidazo[1,5-a]pyrazin-8-amine] as the molecule, how does the IC50 [1] read?
A: 1900 nM

Q: How did the IC50 [1] turn out when `Cc1nn(C(C)c2cc(Cl)c(C#N)c(=O)n2-c2ccccc2)c2ncnc(N)c12` (stereo not shown) [Compound 55, 6-(1-(4-amino-3-methyl-1H-pyrazolo[3,4-d]pyrimidin-1-yl)ethyl)-4-chloro-2-oxo-1-phenyl-1,2-dihydropyridine-3-carbonitrile] was run?
A: 450 nM

— US11725012B2, “Imidazo[1,5-a]pyrazine derivatives as PI3K δ inhibitors” (priority 2016, dated 2023)
